Test results taken from article PMC12299890 (Pharmaceuticals, 2025).
Where two headings read alike, the source gives them in different places.

Experiment: Serum concentration and pharmacokinetics of SCI after oral gavage in Wistar rats
Type: in vivo, Wistar rat
Details: for AUC(0-t) / Cmax / Tmax / k el / MRT / half-life: male, Wistar, rat, po, 10 mg/kg; for k el: read-out: K (elimination rate constant) (converted); for MRT: read-out: MRT (mean residence time); for half-life: read-out: T0.5e (elimination half-life) (converted)
Procedure: All procedures were performed according to the Local Ethical Committee of Experiments on Animals guidelines in Olsztyn, Poland. The experiment was conducted in the same way as described by Antonowski et al.. Briefly, the experiment was performed on male Wistar rats (n = 6). Rats were maintained in ventilated rooms under a standard day photoperiod (12:12 h light–dark) as well as with lights on from 700 to 1900 h at 21 °C. All rats had free access to food and water. At 42 days of age, rats were randomized into experimental groups (Table 1 and Table 4).
Before the administration of cyclitol (10 mg/kg), the rats were fasting for 12 h (Table 1). […] Access to water was unlimited during the experiments. The study group (n = 6) was divided into two subgroups (n = 3 rats per subgroup). This practice allows for the use of only 6 rats for the entire experiment in accordance with the 3 Rs principle. Rats received the compound at a dose of 10 mg/kg body weight. Rats were weighed before starting the compound administration. Cyclitol was administered to the rats from the study group using a stainless-steel gastric tube with a ball tip (manufacturer—Agnthos, curved gastric tube, 16G, 3 mm tip, 75 mm). Cyclitol was dissolved in distilled water to a maximum volume of 1 mL. The prepared solution was administered to the animal.
Blood samples were collected into Eppendorf tubes and were centrifuged at 2500× g for 10 min at 8 °C the following day. Blood was harvested from the tail at a specific time. […] Serum was stored at −80 °C for subsequent analyses.
The analysis is described in detail by Antonowski and co-workers. Briefly, the first step was to remove the protein, then concentrate the sample in a speed vacuum evaporator to dryness. Next, samples were analyzed using the high-resolution gas chromatography method. We used a gas chromatograph GC2010Plus (Shimadzu, Tokyo, Japan) with a capillary column ZEBRON ZB-1 (15 m length, 0.25 mm diameter, and 0.1 μm film thickness, Phenomenex, Torrance, CA, USA). Helium was used as a carrier gas (at a flow rate of 1.18 mL min^−1). […] Finally, scyllo-inositol was quantified by using a standard.
The PK parameters were calculated using PK Solver. PKSolver is an add-in program for pharmacokinetic and pharmacodynamic data analysis […]. […] The area under the drug concentration–time curve from time zero to the time of the last quantifiable concentration (AUClast) was calculated using the trapezoidal rule. The volume over which the drug was distributed (Vd) and clearance (CL) were conducted by PK Solver. […] Nevertheless, we estimated K by log-linear regression analysis on data points on the terminal log-linear phase. Noncompartmental analysis is generally the preferred methodology to use in that it requires fewer assumptions than model-based approaches. We presented the results for individual rats, subgroups of rats, and for all subjects studied. The content of scyllo-inositol was calculated from the standard curves of appropriate components. To determine the terminal phase, […] was sufficient.
An analysis of all parameters was carried out with GraphPad Prism software (Version 10 Graph Pad Software Inc., La Jolla, CA, USA). Data are expressed as means ± SEM or individual data. Briefly, AUClast was calculated using the trapezoidal method. The T0.5 of oral administration was calculated as 0.693/K.

[1] = serum, Mean of rats 1–3 ± SEM, oral 10 mg/kg
[2] = serum, Mean of rats 1–3 ± SEM, serum, oral 10 mg/kg
[3] = serum, Mean of rats 4–6 ± SEM, oral 10 mg/kg
[4] = serum, Mean of rats 4–6 ± SEM, serum, oral 10 mg/kg
[5] = serum, Rat No 1, serum, oral 10 mg/kg
[6] = serum, Rat No 2, serum, oral 10 mg/kg
[7] = serum, Rat No 3, serum, oral 10 mg/kg
[8] = serum, Rat No 4, serum, oral 10 mg/kg
[9] = serum, Rat No 5, serum, oral 10 mg/kg
[10] = serum, Rat No 6, serum, oral 10 mg/kg
[11] = serum, mean serum profile of six rats, oral 3.92 mg SCI (10 mg/kg)
[12] = mean serum profile of six rats, oral 3.92 mg SCI (10 mg/kg)

Compound `O[C@H]1[C@H](O)[C@@H](O)[C@H](O)[C@@H](O)[C@@H]1O` [SCI, scyllo-inositol] has an AUC(0-t) [1] of 36400 ± 3390 ng·h/mL, a Cmax [1] of 6730 ± 291 ng/mL and a Tmax [1] of 1.33 ± 0.167 h. For the same compound, the k el [2] was 0.000237 s⁻¹, the MRT [2] was 36.2 ± 20.7 h and the half-life [2] was 25.1 ± 14.3 h. The AUC(0-t) [3] was 19800 ± 4260 ng·h/mL, the Cmax [3] was 4900 ± 874 ng/mL and the Tmax [3] was 2.67 ± 0.667 h. For the same compound, the k el [4] was 0.000126 s⁻¹, the MRT [4] was 3.6 ± 1.48 h and the half-life [4] was 2.5 ± 1.02 h. The AUC(0-t) (serum, Rat No 1, oral 10 mg/kg) was 40800 ng·h/mL, the Cmax (serum, Rat No 1, oral 10 mg/kg) was 7200 ng/mL and the Tmax (serum, Rat No 1, oral 10 mg/kg) was 1.5 h. It also gave a k el [5] of 0.0007 s⁻¹, an MRT [5] of 0.397 h and a half-life [5] of 0.275 h. For the same compound, the AUC(0-t) (serum, Rat No 2, oral 10 mg/kg) was 38600 ng·h/mL, the Cmax (serum, Rat No 2, oral 10 mg/kg) was 6200 ng/mL and the Tmax (serum, Rat No 2, oral 10 mg/kg) was 1.5 h. The k el [6] was 3.85e-06 s⁻¹, the MRT [6] was 72.1 h and the half-life [6] was 50 h. The AUC(0-t) (serum, Rat No 3, oral 10 mg/kg) was 29700 ng·h/mL, the Cmax (serum, Rat No 3, oral 10 mg/kg) was 6800 ng/mL and the Tmax (serum, Rat No 3, oral 10 mg/kg) was 1 h. The k el [7] was 7.67e-06 s⁻¹, the MRT [7] was 36.3 h and the half-life [7] was 25.1 h. For the same compound, the AUC(0-t) (serum, Rat No 4, oral 10 mg/kg) was 11400 ng·h/mL, the Cmax (serum, Rat No 4, oral 10 mg/kg) was 3200 ng/mL and the Tmax (serum, Rat No 4, oral 10 mg/kg) was 2 h. For the same compound, the k el [8] was 0.000253 s⁻¹, the MRT [8] was 1.1 h and the half-life [8] was 0.761 h. For the same compound, the AUC(0-t) (serum, Rat No 5, oral 10 mg/kg) was 25300 ng·h/mL, the Cmax (serum, Rat No 5, oral 10 mg/kg) was 6100 ng/mL and the Tmax (serum, Rat No 5, oral 10 mg/kg) was 4 h. It also gave a k el [9] of 4.47e-05 s⁻¹, an MRT [9] of 6.21 h and a half-life [9] of 4.31 h. For the same compound, the AUC(0-t) (serum, Rat No 6, oral 10 mg/kg) was 22600 ng·h/mL, the Cmax (serum, Rat No 6, oral 10 mg/kg) was 5400 ng/mL and the Tmax (serum, Rat No 6, oral 10 mg/kg) was 2 h. It also gave a k el [10] of 7.95e-05 s⁻¹, an MRT [10] of 3.5 h and a half-life [10] of 2.42 h. It also gave an AUC(0-t) [11] of 23500 ng·h/mL, a Cmax [11] of 5930 ng/mL and a Tmax [11] of roughly 1.5 h. For the same compound, the k el [11] was 1.91e-05 s⁻¹, the MRT [11] was 14.5 h and the half-life [11] was 10.1 h. The CL [12] was 0.167 L/h, the Vd [12] was 2.43 L and the “Side effects of SCI supplementation noticed during the study” value (oral 10 mg/kg, up to 48 h) was “no side effects”. For the same compound, the “Time of highest average serum concentration” value (rats no. 1–3 (sampled 0–1.5, 12, 24 h), oral 10 mg/kg) was 1.5 h, the “Time of highest average serum concentration” value (rats no. 4–6 (sampled 2–48 h), oral 10 mg/kg) was 2 h and the “Time of first measurement of SCI concentration greater than 0 mg/L” value (serum, after oral 10 mg/kg) was 30 min.
